Reference: patent publication US8278298B2, “Inhibition of tau-tau-association” (Wista Laboratories Ltd., priority 1995, dated 2012)
“Also recorded” adds a separate entry of the source.

Assays:
[1] = target: T1, tau-tau binding (truncated core tau unit of the PHF / full-length tau T40) (Homo sapiens, UniProt P10636); experiment: Tau-tau binding assay (truncated core tau unit in solid phase, tau in aqueous phase); details: for Ki: standard competitive inhibition model
T1 construct: the truncated core tau unit terminating at Ala-390 (“a”); made in house; host or cells: E. coli BL21 (DE3), plasmid pRK172
T1 sequence (P10636 614-707 limits assumed): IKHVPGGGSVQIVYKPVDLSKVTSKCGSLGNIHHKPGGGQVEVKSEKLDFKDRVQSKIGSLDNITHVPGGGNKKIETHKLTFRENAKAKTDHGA
Excerpt: Particularly preferred is the following configuration for tau-tau binding assays (FIG. 10): A tau fragment, preferably a recombinant tau fragment, corresponding to the truncated tau unit of the core PHF is bound to a solid phase, e.g. a conventional ELISA plate, in buffer conditions which have been shown not to favour tau-tau association. […] The solid phase is usually poly(vinyl-chloride), but may be other polymers such as cellulose, polyacrylamide, nylon, polystyrene or polypropylene. The solid supports may be in the form of tubes, beads, discs or micro plates, or any other surfaces suitable for conducting an assay, and which on passive binding of tau protein, exposes the high affinity tau capture site. Following binding, the solid phase-antibody complex is washed in preparation for the test sample.
Next, a truncated unit terminating at Glu-391 was incubated. Only the lafter could be detected as mAb 423 immunoreactivity. […] Therefore plating of the core tau unit for passive binding to solid phase matrix was carried out in this buffer. If desired, a depolymerised tubulin preparation or a preparation of microtubules in the same buffer can be plated for passive binding for determination of tau-tubulin binding. Suitable agents for blocking excess binding sites are milk extract, bovine serum albumin, gelatine, etc. […]
FIG. 8: Tau binding assay configuration in which binding of two truncated units is measured. […]
FIG. 10: Standard configuration for measurement of binding of full-length tau (“t”) to the truncated core tau unit previously bound passively to the solid phase (“a”). […] Binding is detected by an appropriate antibody, which recognises an epitope located near the N-terminus of full-length tau.
(§1) FIG. 20: Selective inhibition of tau-tau-binding by thionine. […] The Ki values were calculated using the Kd values obtained from the corresponding binding studies using full-length tau. […]
The assay is carried out in a 96-well PVC microtitre plate, with solutions added and readings taken with respect to individual wells: […]

[2] = test system: 3T3 cells; experiment: Toxicity of inhibitors in 3T3 cells; type: cell-based, mouse
Procedure: (§2) Mouse fibroblast 3T3 cells were transfected with a eukaryotic expression vector (pIF2) containing full-length and truncated forms of tau protein under constitutive control by a β-globin promotor. This vector contains a neomycin resistance gene as a selectable marker (pSV2neo; Sambrook et al. (1989), loc. cit.; modified by M. N. Neuberger). Cells were cultured in […] (DMEM) containing antimicrobial agents and 10% foetal calf serum at 37° C. in an atmosphere of 5% CO2. They were transfected with plasmid DNA either using a standard calcium phosphate protocol or by lipofection (according to manufacturers protocol; Gibco BRL). Cells which had integrated the plasmid DNA were selected by viability in medium containing Geneticin (0.5 mg/ml; Southern and Berg (1982), J. Mol. Appl. Genet. 1, 327).
The toxicity of the truncated core tau unit might be reversible in part if the prototype phenothiazine inhibitors could be used to block self-aggregation in vivo. This would be feasible only if the compounds were not intrinsically toxic at concentrations needed to block tau-tau binding. […] In practice, 3T3 cells could be grown several month in the presence of 2 μM thionine.

[3] = target: tau-tubulin binding (depolymerised tubulin coated, tau incubated) (Homo sapiens, UniProt P10636); experiment: Tau-tubulin binding assay; details: read-out: Ki for inhibition of the tau-tubulin binding interaction in vitro
Chain of tau-tubulin binding (depolymerised tubulin coated, tau incubated) (P10636 1-441 isoform P10636-8): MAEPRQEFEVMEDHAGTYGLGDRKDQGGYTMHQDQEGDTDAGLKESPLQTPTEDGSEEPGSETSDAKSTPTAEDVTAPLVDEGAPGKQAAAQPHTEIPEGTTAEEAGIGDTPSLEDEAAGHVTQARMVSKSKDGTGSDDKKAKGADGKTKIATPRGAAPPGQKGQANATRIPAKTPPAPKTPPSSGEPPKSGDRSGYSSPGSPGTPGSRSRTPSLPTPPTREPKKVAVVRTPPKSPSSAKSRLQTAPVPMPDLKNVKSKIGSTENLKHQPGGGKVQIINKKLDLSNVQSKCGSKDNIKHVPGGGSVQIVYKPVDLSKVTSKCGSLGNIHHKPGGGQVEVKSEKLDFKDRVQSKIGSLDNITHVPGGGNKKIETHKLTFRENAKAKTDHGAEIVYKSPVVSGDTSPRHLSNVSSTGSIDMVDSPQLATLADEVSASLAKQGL
Procedure: A method of determining any possible interference, i.e. binding of tau or a derivative thereof to tubulin molecules, comprises contacting a depolymerised tubulin preparation, or preparation of taxol-stabilised microtubules with an agent suspected of being capable of modulating or inhibiting pathological tau-tau association and a tau compound mentioned in above step c) followed by detection of the tau-tubulin binding.
Next, a truncated unit terminating at Glu-391 was incubated. Only the lafter could be detected as mAb 423 immunoreactivity. […] Therefore plating of the core tau unit for passive binding to solid phase matrix was carried out in this buffer. If desired, a depolymerised tubulin preparation or a preparation of microtubules in the same buffer can be plated for passive binding for determination of tau-tubulin binding. Suitable agents for blocking excess binding sites are milk extract, bovine serum albumin, gelatine, etc. […] No binding of full-length tau was seen without prior plating of the core tau unit in the solid phase. When both species were present, binding was seen to depend on concentration of both species. […]
as §1

[4] = test system: tau/MAP2 binding interaction (foetal MAP2C); experiment: Tau/MAP2 binding in the standard binding assay; details: truncated tau/MAP2C and MAP2C/full-length tau configurations
Excerpt: One possible explanation for the lack of MAP2 in PHFs might be that MAP2 in PHFs might be MAP2 is unable to bind to the core tau unit of the PHF because of sequence differences in the repeat regions. This was examined experimentally using the standard binding assay in two configurations: truncated tau in the solid phase with foetal MAP2C in the aqueous phase, and MAP2C in the solid phase with full-length tau in the aqueous phase. […] Thus, aggregation in the tandem-repeat region is not selective for tau, and the inhibitory activity of phenothiazine inhibitors such as thionine is not dependent on sequences unique to tau. The reason why MAP2 is not found in PHFs is at present unknown, but factors may include the contribution of the large N-terminal domain found in the adult form of MAP2, compartment differences within the cell, or other differences in processing of the MAP2 molecules.

[5] = test system: 3T3 fibroblast transfected with full-length tau protein; experiment: Cytoskeletal distribution of tau in 3T3 fibroblasts transfected with full-length tau; type: cell-based, mouse
Procedure: as §2
The influence of thionine on the tau-tubulin binding interaction was examined in vivo by culturing 3T3 fibroblast transfected with full-length tau protein in the presence of thionine at a range of concentrations.

[6] = test system: 3T3 cells transfected with truncated tau; experiment: Viability of 3T3 cells transfected with truncated tau; type: cell-based, mouse; details: grown in higher concentrations of thionine
Procedure: as §2
The number of viable cell lines transfected with truncated tau increased when the cells were grown in the presence of higher concentrations of thionine.

[7] = test system: 3T3 cells transfected with PIF2::T40; experiment: Lipofectin/tau protein transfer into 3T3 cells expressing full-length tau; type: cell-based, mouse; details: truncated tau transferred via lipofectin, all three concentrations of truncated tau; thionine 1 μM
Procedure: FIG. 30: Lipofectin/tau protein transfers into 3T3 cells transfected with PIF2::T40. Relative cell survival (normalised to cell counts after Lipofectin treatment without protein) is shown for approximately equimolar concentrations of full-length (T40, 220 nM) and truncated tau (dGAE, 300 nM), without (unshaded) or with shaded) thionine at 1 μM. Truncated tau is more toxic than full-length tau (p=0.02), despite the fact that at equimolar concentrations, the total protein load is 5× greater in the case of full-length tau.
FIGS. 31A and 31B: (FIG. 31A) Reversal of truncated tau toxicity: The toxicity of truncated tau transferred via lipofectin into 3T3 cells expressing full-length tau is concentration dependent. […] (FIG. 31B) Similar experiment in which full-length tau was transferred via lipofectin into 3T3 cells expressing full-length. Both toxicity and thionine effects were much less apparent.

[8] = test system: PC-12 cells; experiment: pNFH aggregates and neurite incorporation in PC-12 cells; type: cell-based; details: for Frequency of cells with pNFH aggregates: after db-cAMP, with thionine
Procedure: (§3) Neuronal cell lines (N2A, NIE-115) were cultured in DMEM containing 2% or 10% foetal calf serum and 5% horse serum on tissue culture plates coated with collagen. These were all grown at 37° C. in an atmosphere containing 5% CO2. Initial immunohistochemical studies of neuronal cell lines prior to transfection led to the identification of cytoplasmic aggregates immunoreactive with mAb 423 forming in the cytoplasm of undifferentiated neuroblastoma cells (N2A cells) and in PC-12 cells after brief treatment with dibutyryl-cAMP (db-cAMP, known to differentiate neuroblastoma cells in tissue culture). […] In the course of differentiation, this endogenous mAb 423 immunoreactivity was seen to shift from the cytoplasm to neurites. Immunoprecipitation of mAb423 immunoreactivity from these cells led to the identification of a species with gel mobility of 230 kDa which was recognised by SMI-31. […] We refer to them as presumptive-NFH aggregates (pNFH).
PC-12 cells were transfected with the pIF2 vector containing either the PHF-core tau fragment truncated at Glu-391 or full-length tau protein. As with 3T3 fibroblasts, no viable cell lines transfected with truncated tau were produced unless cells were grown in thionine following transfection. Once stahilised, transfected cell lines were analysed in the presence or absence of db-cAMP and in the presence and absence of thionine. Two end-points were examined: formation of cytoplasmic pNPH aggregates, and distribution of pNFH immunoreactivity into neurites.

[9] = test system: NIE-115 cells; experiment: pNFH aggregates and neurite incorporation in NIE-115 cells; type: cell-based
Procedure: as §3
Rather, pNFH immunoreactivity was normally incorporated into growing neurites during the course of differentiation, although an early perinuclear-arc stage was also seen. NIE cells were transfected as above with the pIF2 vector containing either full-length or truncated tau protein and grown in the presence of thionine. The effects of adding db-cAMP in the presence or absence of thionine were then examined.

[10] = test system: neuronal cell lines; experiment: Toxicity for neuronal cell lines; type: cell-based; details: concentrations up to 2 μM
[11] = systemic administration; cited from earlier work

## acriflavin [reference compound]
[1]
  Ki: 100 nM
[2]
  Toxicity in 3T3 cells / fibroblasts: lowest toxicity

## thionine
[1]
  Ki: 100 nM
[3]
  Ki: 8000 nM
[4]
  Effect on tau/MAP2 binding interaction: blocked
[2]
  Toxicity in 3T3 cells / fibroblasts: lowest toxicity; also recorded: does not appear to have substantial intrinsic toxicity
[2]; prolonged culture
  Concentration at which 3T3 cells could be grown several months: 2000 nM
[5]
  Concentration causing disruption of normal cytoskeletal distribution of tau immunoreactivity: 4 to 8 µM
[5]; concentration range 0.5-2 μM
  Effect on cytoskeletal distribution of tau: no effect
[6]
  Number of viable cell lines transfected with truncated tau: increased
[7]
  Reversal of truncated tau toxicity: significantly reversed toxicity
[8]; PC-12 cells transfected with truncated tau, with thionine (0.04 without)
  pNFH-neurite index: 0.49
[8]; all transfected cells (49% after withdrawal)
  Frequency of cells with pNFH aggregates: 27%
[8]; cells transfected with full-length tau (32% after withdrawal)
  Frequency of cells with pNFH aggregates: 16%
[8]; cells transfected with truncated tau (60% after withdrawal)
  Frequency of cells with pNFH aggregates: 36%
[8]; untransfected PC-12 cells
  Inhibition of pNFH aggregates in the cytoplasm: Dose-dependent inhibition
[9]; NIE-ND1, after db-cAMP, with thionine as printed (0.66 without)
  pNFH-neurite index: 0.1
[9]; NIE-ND6, transfected with truncated tau, with thionine (44% after withdrawal)
  Proportion of cells containing pNFH aggregates: 14%
[9]; cells transfected with full-length tau
  Incorporation of transgenic tau protein into the microtubular cytoskeleton: did not interfere
[9]; cells transfected with full-length tau, with thionine (16% after withdrawal)
  Proportion of cells containing pNFH aggregates: 7%
[10]
  Toxicity for neuronal cell lines: not toxic

## POTr: fetal rat tau
[1]; introduced in the aqueous phase
  Binding to the core tau unit: incapable of pathological binding

## CN(C)c1ccc2nc3ccc(=[N+](C)C)cc-3sc2c1 [methylene blue]
[11]
  CNS penetration: CNS penetration following systemic administration has been described
